Test results reported in patent publication US6451857B1, “Analgesic compositions comprising anti-epileptic compounds and methods of using same” (Warner-Lambert Company, priority 1999, dated 2002).

Tested on: carrageenan-induced thermal hyperalgesia
Experiment: Carrageenan rat footpad thermal hyperalgesia test (Hargreaves test)
Type: in vivo
From the text: The aim of this experiment was to characterize the antinociceptive and anti-inflammatory effects of gabapentin administered in combination with a prototypic NSAID in the rat. […] This assay utilizes an extract of seaweed (carrageenan) that, when injected into the footpad of test animals, causes a sterile inflammation, thereby lowering the pain threshold.
Male Sprague-Dawley rats (200-250 g, Sasco Laboratories) were used. Rats were group housed 5/cage on a 12-hour light:dark cycle with free access to food and water. Rats received only one dose of a drug or drug combination. All drugs were administered orally by gavage.
Dose-effect curves were first determined for (1) gabapentin by itself and (2) a prototypic NSAID (e.g., naproxen) by itself. The ED50 value and 95% confidence limits of each agent was determined, as was the time to peak effect. […]
Carrageenan-induced thermal hyperalpesia: Rats were acclimated to a testing chamber whose glass floor was maintained at 25° C. Thirty minutes later, a high intensity beam of light was focused through the glass on the ventral surface of each hindpaw, and the latency to reflex withdrawal of the paw from the light beam was measured to the nearest 0.1 second. […] Response latencies for the ipsilateral and contralateral hindpaws were then re-determined 15, 30, 45, 60, 90 and 120 minutes later. […]
Data were expressed as the mean ±SEM. […]

COc1ccc2cc([C@H](C)C(=O)O)ccc2c1 [Naproxen sodium, naproxen sodium]
anti-hyperalgesic action (PO, gabapentin 3-100 mg/kg, naproxen sodium 0.3-30 mg/kg, combinations in fixed ratio): caused anti-hyperalgesic actions | ED50 (Rattus norvegicus, 2 h, single drug, oral gavage, male Sprague-Dawley rats, data 120 min after dosing, 95% confidence limits in parentheses): 0.36 mg/kg
